Measured values: article PMC4583543, “Development and Validation of a Novel Leishmania donovani Screening Cascade for High-Throughput Screening Using a Novel Axenic Assay with High Predictivity of Leishmanicidal Intracellular Activity” (PLoS Neglected Tropical Diseases, 2015)
Read-outs that look alike come from different tables or passages of the source.

Assays:
[1] = system: THP-1 cells; experiment: THP-1 host cell toxicity in the intramacrophage assay; type: cell-based, human; conditions: for EC50: Homo sapiens
Experimental: (§1) Compounds were dispensed into 384-well assay plates by acoustic dispensing (LabCyte ECHO). […] Potencies are reported as pEC50 (-LOG(EC50[M])).
(§2) All data was processed using IDBS ActivityBase. […] Potency plates were normalised to DMSO control (0% effect) and 2μM amphotericin B control (100% effect). […] For compounds with low activity and poor definition of the curve top, B was fixed to 100. For the determination of the reference compound panel potency, all experiments were carried out with a minimum of three independent repeats.
(§3) The assay conditions are described previously. Briefly PMA differentiated THP-1 cells were infected overnight with eGFP expressing LdBOB amastigote-like cells at a multiplicity of infection of 5. Next, any remaining free amastigote-like cells are removed and compounds are added. The microscopy-based read-out is done after a four day compound incubation.

[2] = system: HepG2 cells; experiment: HepG2 assay (mammalian counterscreen, resazurin); type: cell-based, human; conditions: for EC50: Homo sapiens, read-out: HepG2 (potency, pEC50) (converted)
Experimental: Compounds were dispensed into 384-well assay plates by acoustic dispensing (LabCyte ECHO). […] Potencies are reported as pEC50 (-LOG(EC50[M])). All data was processed using IDBS ActivityBase. […] For compounds with low activity and poor definition of the curve top, B was fixed to 100. For the determination of the reference compound panel potency, all experiments were carried out with a minimum of three independent repeats. The assay conditions are described previously.

[3] = system: eGFP expressing LdBOB amastigote-like cells in PMA differentiated THP-1 cells; experiment: Intramacrophage (intracellular, INMAC) assay; type: cell-based, Leishmania donovani; conditions: for EC50: Leishmania donovani
Experimental: as §1, §2, §3

[4] = system: LdBOB axenic amastigote-like cells; experiment: Novel (cidal) axenic amastigote assay, BacTiter-Glo read-out; type: cell-based, Leishmania donovani
Excerpt: Leishmania donovani BOB cells (LdBOB) used in this study are a cloned line from strain MHOM/SD/62/1S-CL2 [13]. Cultures were maintained as described previously. Compounds were dispensed into 384-well assay plates by acoustic dispensing (LabCyte ECHO). […] Potencies are reported as pEC50 (-LOG(EC50[M])). All data was processed using IDBS ActivityBase. […] For compounds with low activity and poor definition of the curve top, B was fixed to 100. For the determination of the reference compound panel potency, all experiments were carried out with a minimum of three independent repeats. Test compounds were pre-dispensed into white 384 well plates (Corning). For library screens one compound per well was tested at the indicated final concentration. […] DMSO, zero percent effect control: cells at starting concentration. The zero percent effect control wells are left empty during the course of the assay. […] The assay volume is 25 μl / well. […] Plates were then sealed with clear film and relative luminescence was detected using a plate reader (Victor 3) from Perkin Elmer or PHERAstar FS from BMG LABTECH, with 0.5 s detection time per well).

[5] = THP-1, reference compound panel, mean (standard deviation), host cell toxicity, read-out: THP-1 (potency, pEC50) (converted)
[6] = HepG2, reference compound panel, mean (standard deviation), 72 h
[7] = THP-1, 96 h, reference compound panel, mean (standard deviation), minimum three independent repeats, four day incubation, read-out: Intramacrophage (potency, pEC50) (converted)
[8] = Leishmania donovani; read-out: Novel (axenic assay potency, pEC50) (converted)
[9] = THP-1, DOS library compounds, dose response, read-out: THP1 pEC50 (converted)
[10] = THP-1, DOS library compounds, dose response, read-out: INMAC (intracellular) pEC50 (converted)
[11] = Leishmania donovani; DOS library compounds, ten-point dose response; read-out: cAX pEC50 (converted)
[12] = single concentration screen at 25 μM
[13] = THP-1, 96 h, read-out: Intramacrophage (potency, pEC50) (converted)

Compound	EC50 [1, 5] [µM]	EC50 [2, 6] [µM]	EC50 [3, 7] [µM]	EC50 [4, 8] [µM]	EC50 [3, 10] [µM]	other results
NCCCC(O)(P(=O)(O)O)P(=O)(O)O [Alendronic acid]	> 34.7	> 50.1	> 34.7	> 50.1	–	–
CCN(CC)Cc1cc(Nc2ccnc3cc(Cl)ccc23)ccc1O [Amodiaquine]	29.5	25.7	4.07	> 50.1	–	activity in words (intracellular versus novel axenic) ([3]; reference compound panel): only active in the intracellular assay
C[C@@H]1[C@H](O)[C@@H](C)/C=C/C=C/C=C/C=C/C=C/C=C/C=C/[C@H](O[C@@H]2O[C@H](C)[C@@H](O)[C@H](N)[C@@H]2O)C[C@@H]2O[C@](O)(C[C@@H](O)C[C@@H](O)[C@H](O)CC[C@@H](O)C[C@@H](O)CC(=O)O[C@H]1C)C[C@H](O)[C@H]2C(=O)O [Amphotericin B]	26.9	> 50.1	0.24	0.302	–	EC50 ([4]; Leishmania donovani; control on each plate, run to run over extended time period; ± StDev; read-out: average pEC50 of plate control (converted)): 0.126 µM
CCCNC(=O)N1[C@H](C#N)[C@H](c2ccc(C#Cc3cccc(F)c3)cc2)[C@@H]1CO [BRD0645]	–	–	–	–	3.98	EC50 [1, 9]: > 50.1 µM; EC50 [4, 11]: 0.794 µM
CCCNC(=O)N1[C@H](C#N)[C@H](c2ccc(C#Cc3ccc(F)cc3)cc2)[C@@H]1CO [BRD1184]	–	–	–	–	2	EC50 [1, 9]: 15.8 µM; EC50 [4, 11]: 0.631 µM
CCCNC(=O)N1[C@H](C#N)[C@@H](c2ccccc2-c2ccc(OC)cc2)[C@@H]1CO [BRD2647 RRS stereoisomer]	–	–	–	–	39.8	–
CCCNC(=O)N1[C@H](CO)[C@H](c2ccccc2-c2ccc(OC)cc2)[C@@H]1C#N [BRD2647 SRR stereoisomer]	–	–	–	–	–	activity in the initial HTS assay [4, 12]: inactive
CCCNC(=O)N1[C@H](CO)[C@@H](c2ccccc2-c2ccc(OC)cc2)[C@@H]1C#N [BRD2647 SSR stereoisomer]	–	–	–	–	–	activity in the initial HTS assay [4, 12]: inactive
CCCNC(=O)N1[C@H](C#N)[C@H](c2ccccc2-c2ccc(OC)cc2)[C@@H]1CO [BRD2647]	–	–	–	–	6.31	EC50 [1, 9]: > 50.1 µM; EC50 [4, 11]: 1.58 µM
COc1ccc(-c2ccccc2[C@H]2[C@@H](C#N)N(C(=O)NC(C)C)[C@H]2CO)cc1 [BRD3029]	–	–	–	–	12.6	EC50 [1, 9]: > 50.1 µM; EC50 [4, 11]: 1.58 µM
CC(C)NC(=O)N1[C@H](C#N)[C@H](c2ccc(-c3ccc(F)cc3)cc2)[C@@H]1CO [BRD3486]	–	–	–	–	6.31	EC50 [1, 9]: 10 µM; EC50 [4, 11]: 2 µM
CCCNC(=O)N1[C@H](C#N)[C@H](c2ccccc2-c2ccc(C)cc2)[C@@H]1CO [BRD4332]	–	–	–	–	6.31	EC50 [1, 9]: > 50.1 µM; EC50 [4, 11]: 0.631 µM
CCCNC(=O)N1[C@H](C#N)[C@H](c2ccc(C3=CCCCC3)cc2)[C@@H]1CO [BRD5744]	–	–	–	–	2	EC50 [1, 9]: > 50.1 µM; EC50 [4, 11]: 0.794 µM
CCCNC(=O)N1[C@@H](C#N)[C@@H](c2ccc(-c3cccc(OC)c3)cc2)[C@@H]1CO [BRD6650 RRR stereoisomer]	–	–	–	–	50.1	–
CCCNC(=O)N1[C@H](C#N)[C@@H](c2ccc(-c3cccc(OC)c3)cc2)[C@@H]1CO [BRD6650 RRS stereoisomer]	–	–	–	–	15.8	–
CCCNC(=O)N1[C@H](CO)[C@H](c2ccc(-c3cccc(OC)c3)cc2)[C@@H]1C#N [BRD6650 SRR stereoisomer]	–	–	–	–	31.6	–
CCCNC(=O)N1[C@H](C#N)[C@@H](c2ccc(-c3cccc(OC)c3)cc2)[C@H]1CO [BRD6650 SRS stereoisomer]	–	–	–	–	20	–
CCCNC(=O)N1[C@H](CO)[C@@H](c2ccc(-c3cccc(OC)c3)cc2)[C@@H]1C#N [BRD6650 SSR stereoisomer]	–	–	–	–	10	–
CCCNC(=O)N1[C@H](C#N)[C@H](c2ccc(-c3cccc(OC)c3)cc2)[C@H]1CO [BRD6650 SSS stereoisomer]	–	–	–	–	20	–

Compound	EC50 [1, 5] [µM]	EC50 [2, 6] [µM]	EC50 [3, 7] [µM]	EC50 [4, 8] [µM]	EC50 [3, 10] [µM]	other results
CCCNC(=O)N1[C@H](C#N)[C@H](c2ccc(-c3cccc(OC)c3)cc2)[C@@H]1CO [BRD6650]	–	–	–	–	2	EC50 [1, 9]: > 50.1 µM; EC50 [4, 11]: 0.501 µM
CCCNC(=O)N1[C@H](C#N)[C@H](c2ccc(-c3cccnc3)cc2)[C@@H]1CO [BRD9157]	–	–	–	–	1.58	EC50 [1, 9]: > 50.1 µM; EC50 [4, 11]: 12.6 µM
COc1ccc(-c2ccccc2[C@H]2[C@@H](C#N)N(C(=O)NC3CCCC3)[C@H]2CO)cc1 [BRD9613]	–	–	–	–	10	EC50 [1, 9]: > 50.1 µM; EC50 [4, 11]: 1.58 µM
COc1ccc2cc3[n+](cc2c1OC)CCc1cc2c(cc1-3)OCO2 [Berberine]	> 34.7	33.9	16.2	9.33	–	–
C[C@@]12C(=O)OC(=O)[C@]1(C)[C@H]1CC[C@@H]2O1 [Cantharidin]	–	–	–	–	–	EC50 ([1]; THP-1, read-out: THP-1 (potency, pEC50) (converted)): 2.75 µM; EC50 ([2]; HepG2, 72 h): 1.35 µM; EC50 [3, 13]: 13.2 µM; EC50 ([4]; Leishmania donovani, read-out: Novel (axenic assay potency, pEC50) (converted)): 4.37 µM
N=C(N)c1ccc(/N=N/Nc2ccc(C(=N)N)cc2)cc1 [Diminazene]	> 34.7	> 50.1	> 34.7	11.7	–	–
CC(=O)O[C@@]12CO[C@@H]1C[C@H](O)[C@@]1(C)C(=O)[C@H](O)C3=C(C)[C@@H](OC(=O)[C@H](O)[C@@H](NC(=O)OC(C)(C)C)c4ccccc4)C[C@@](O)([C@@H](OC(=O)c4ccccc4)[C@H]21)C3(C)C [Docetaxel]	> 34.7	–	14.5	8.91	–	–
OC(c1ccc(Cl)cc1)(c1cncnc1)c1ccccc1Cl (stereo not drawn) [Fenarimol]	> 34.7	> 50.1	> 34.7	> 50.1	–	–
Cn1c([N+](=O)[O-])cnc1COc1ccc(S(C)(=O)=O)cc1 [Fexinidazole sulfone]	> 34.7	> 50.1	32.4	7.76	–	–
CSc1ccc(OCc2ncc([N+](=O)[O-])n2C)cc1 [Fexinidazole]	> 34.7	> 50.1	> 34.7	11.5	–	–
CC(C)Cn1cnc2c(N)nc3ccccc3c21 [Imiquimod]	> 34.7	> 50.1	–	> 50.1	–	EC50 [3, 13]: > 34.7 µM
CC(C)(C)NC(=O)[C@@H]1CN(Cc2cccnc2)CCN1C[C@@H](O)C[C@@H](Cc1ccccc1)C(=O)N[C@H]1c2ccccc2C[C@H]1O [Indinavir]	> 34.7	> 50.1	> 34.7	> 50.1	–	–
C=CC(C)(C)c1cc(/C=C/C(=O)c2ccc(O)cc2)c(OC)cc1O [Licochalcone A]	–	–	–	–	–	THP-1 (potency, pEC50) ([1]; reference compound panel, mean (standard deviation), host cell toxicity): 4.46 (0.01); HepG2 (potency, pEC50) ([2]; reference compound panel, mean (standard deviation), 72 h): 4.44 (0.09); Intramacrophage (potency, pEC50) ([3]; reference compound panel, mean (standard deviation), minimum three independent repeats, four day incubation): 4.65 (0.17); Novel (axenic assay potency, pEC50) ([4]; reference compound panel; mean (standard deviation), minimum three independent repeats; top concentration 50 μM; pEC50 = -LOG(EC50[M])): 4.67 (0.15)
O=c1cc(-c2ccc(O)c(O)c2)oc2cc(O)cc(O)c12 [Luteolin]	14.5	24.5	28.2	46.8	–	–
OC(c1cc(C(F)(F)F)nc2c(C(F)(F)F)cccc12)C1CCCCN1 (stereo not drawn) [Mefloquine]	12	9.77	8.51	> 50.1	–	activity in words (intracellular versus novel axenic) ([3]; reference compound panel): only active in the intracellular assay
CC1=CC(=O)c2ccccc2C1=O [Menadione]	33.1	3.47	> 34.7	10.2	–	–
CCCCCCCCCCCCCCCCOP(=O)([O-])OCC[N+](C)(C)C [Miltefosine]	> 34.7	> 50.1	0.794	31.6	–	potency difference, intracellular assay relative to novel axenic assay ([3]; more active in the intracellular assay): around ten-fold
CC1CS(=O)(=O)CCN1/N=C/c1ccc([N+](=O)[O-])o1 (stereo not drawn) [Nifurtimox]	> 34.7	> 50.1	> 34.7	11.2	–	–
